# Experimental data as given in patent publication US20030059852A1, “Modulation of integrin-mediated signal transduction” (COR Therapeutics, Inc., priority 1995, published 2003).
# Experiments:
# platelets = test: Platelet aggregation induced by agonists; assay type: cell-based, human
# Experimental: (§1) Blood from healthy volunteers was collected into ⅙^th volume of 85 mM sodium citrate, 111 mM dextrose and 71 mM citric acid supplemented with 50 ng/ml PGI2 and 0.6 U/ml apyrase. After centrifugation of the blood at 160× g for 20 minutes the platelet rich plasma was removed and subjected to further centrifugation at 730× g for 10 minutes to sediment the platelets. Platelets were then resuspended in 13 mM trisodium citrate, 120 mM NaCl and 30 mM dextrose pH 7.0 and washed x 2 with this buffer. The platelets were then resuspended in 12 mM NaHCO3, 138 mM NaCl, 5.5 mM dextrose, 2.9 mM KCl, 10 mM Hepes, 1 mM CaCl2, 0.3 U/ml apyrase and allowed to recover for 1 hour at 37° C. Resting platelets were activated by the addition of 1 nM thrombin with stirring until aggregates were visible (1-3 minutes).
# Additional experiments have been performed using a 2-D gel electrophoresis protocol and have yielded further information on the tyrosine phosphorylation of GPIIIa (FIG. 3). GPIIIa tyrosine phosphorylation can be observed in platelets induced to aggregate using agonists other than thrombin. […] In all cases platelet aggregation appears to be a prerequisite for GPIIIa tyrosine phosphorylation.
# GP IIIa (β3) = test: In vivo tyrosine phosphorylation of GPIIIa, 2-D gel electrophoresis and anti-phosphotyrosine immunoblotting; assay type: cell-based, human
# Experimental: as §1, with “Resting platelets were activated by the addition of 1 nM thrombin with stirring until aggregates were visible (1-3 minutes).” left out
# 330 μl of 3× non-reducing sample buffer containing 1 mM sodium vanadate was added to 1 ml of control or thrombin-aggregated platelets. […] This membrane was then immunoblotted with anti-phosphotyrosine antibodies and the relative amount of phosphorylated GPIIIa was determined by densitometry for both control and thrombin-aggregated samples. […]
# However, a three to six fold enhancement of phosphorylation of GPIIIa was observed when platelets were lysed in a high concentration of SDS and the proteins immediately separated by 2-D gel electrophoresis prior to transfer to a nitrocellulose membrane, and immunoblotting to detect phosphorylated proteins with phosphotyrosine antibodies and with a GPIIIa antibody to quantitate GPIIIa. […]
compound,measurement,setting,value
Nc1ncnc2c1ncn2[C@@H]1O[C@H](COP(=O)(O)OP(=O)(O)O)[C@@H](O)[C@H]1O [ADP],platelet aggregation,platelets,does not induce platelet aggregation
same,Aggregation,platelets; platelets stimulated with the indicated agonist,no
same,GPIIIa tyrosine phosphorylation,GP IIIa (β3); 2-D gel electrophoresis protocol,no increase
same,β3 Phosphorylation,"GP IIIa (β3); platelets stimulated with the indicated agonist, 2-D gel, anti-phosphotyrosine immunoblotting",no
